Experiment [1] concerns the target T1, Peptidyl-prolyl cis-trans isomerase (Burkholderia pseudomallei (strain K96243)) (UniProt Q63J95).
T1 sequence (whole entry): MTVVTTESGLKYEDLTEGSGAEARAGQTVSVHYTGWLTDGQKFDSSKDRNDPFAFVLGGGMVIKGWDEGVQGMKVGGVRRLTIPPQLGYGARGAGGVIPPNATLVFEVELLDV

Experiment [2] deals with T2, Macrophage infectivity potentiator (Trypanosoma cruzi) (UniProt Q09734).
T2 sequence (whole entry): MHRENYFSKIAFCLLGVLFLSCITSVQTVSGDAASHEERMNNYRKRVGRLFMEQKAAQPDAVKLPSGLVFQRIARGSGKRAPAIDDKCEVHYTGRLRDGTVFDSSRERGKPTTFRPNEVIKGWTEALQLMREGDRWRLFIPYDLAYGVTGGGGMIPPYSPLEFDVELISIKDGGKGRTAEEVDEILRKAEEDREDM

The target of experiment [3] is Outer membrane protein MIP (Legionella pneumophila) (UniProt Q70YI1).
The target is the same in experiment [4]. The source holds these as a separate data set.
In experiment [5] the target is T2, Macrophage infectivity potentiator (Trypanosoma cruzi). This is another data set of the same source.
In experiment [6] the target is Outer membrane protein MIP (Legionella pneumophila) (UniProt Q70YI1). This is another data set of the same source.
Experiment [7] deals with T1, Peptidyl-prolyl cis-trans isomerase (Burkholderia pseudomallei (strain K96243)). This is another data set of the same source.
The target of experiment [8] is Outer membrane protein MIP (Legionella pneumophila) (UniProt Q70YI1). This is another data set of the same source.
Experiment [9] has the same target. This is another data set of the same source.
Experiment [10] addresses T2, Macrophage infectivity potentiator (Trypanosoma cruzi). The source holds these as a separate data set.
Experiment [11] deals with Outer membrane protein MIP (Legionella pneumophila) (UniProt Q70YI1). This is another data set of the same source.
The target is the same in experiment [12]. This is another data set of the same source.
For experiment [13] the target is unchanged. The source holds these as a separate data set.
The target of experiment [14] is T1, Peptidyl-prolyl cis-trans isomerase (Burkholderia pseudomallei (strain K96243)). The source holds these as a separate data set.

The structures appear in SMILES notation. Calls of active or inactive are those of the source. The calls are words filed in the database; no cut-off is given here.

As to `O=C(NCc1cccnc1)[C@H](Cc1ccc(F)cc1)NC(=O)[C@@H]1CCCCN1S(=O)(=O)Cc1ccc(F)cc1`, the Time came out at 7.8 nanoseconds in experiment [1], 14.5 nanoseconds in experiment [2], 25.4 nanoseconds in experiment [3] and 9.7 nanoseconds in experiment [4]. Further, the result in [5], in experiment [6], in experiment [7], in experiment [8], in experiment [9] and in experiment [10] was Active. Further, the result in [11], in [12] and in experiment [13] was Active.
Consider `CC(C)C[C@H](NC(=O)[C@@H]1CCCCN1S(=O)(=O)Cc1ccc(F)cc1)C(=O)NCc1cccnc1`, for which the Time in [1] amounted to 7.6 nanoseconds; in [2], 13.8 nanoseconds; in experiment [3], 27.9 nanoseconds; in [4], 8.8 nanoseconds. The outcome in experiment [14], in [6], in experiment [7], in experiment [8], in [9] and in experiment [10] was Active. Moreover, the result in [11], in experiment [12] and in experiment [13] was Active.

Values taken from ChEMBL document CHEMBL6103611, “Structure and Dynamics of Macrophage Infectivity Potentiator Proteins from Pathogenic Bacteria and Protozoans Bound to Fluorinated Pipecolic Acid Inhibitors” (J Med Chem, 2025).
